According to patent US12590099B2, “Inhibitors of histone deacetylase useful for the treatment or prevention of HIV infection” (Merck Sharp & Dohme LLC, priority 2018, dated 2026):

Columns and labels:
Assay type in all cases: biochemical
HDAC6 = biological target: T1, HDAC6 (Homo sapiens, UniProt Q9UBN7); test: Human HDAC enzyme inhibitor Fluor-de-Lys assay, HDAC6
T1 sequence (Q9UBN7 1-1215): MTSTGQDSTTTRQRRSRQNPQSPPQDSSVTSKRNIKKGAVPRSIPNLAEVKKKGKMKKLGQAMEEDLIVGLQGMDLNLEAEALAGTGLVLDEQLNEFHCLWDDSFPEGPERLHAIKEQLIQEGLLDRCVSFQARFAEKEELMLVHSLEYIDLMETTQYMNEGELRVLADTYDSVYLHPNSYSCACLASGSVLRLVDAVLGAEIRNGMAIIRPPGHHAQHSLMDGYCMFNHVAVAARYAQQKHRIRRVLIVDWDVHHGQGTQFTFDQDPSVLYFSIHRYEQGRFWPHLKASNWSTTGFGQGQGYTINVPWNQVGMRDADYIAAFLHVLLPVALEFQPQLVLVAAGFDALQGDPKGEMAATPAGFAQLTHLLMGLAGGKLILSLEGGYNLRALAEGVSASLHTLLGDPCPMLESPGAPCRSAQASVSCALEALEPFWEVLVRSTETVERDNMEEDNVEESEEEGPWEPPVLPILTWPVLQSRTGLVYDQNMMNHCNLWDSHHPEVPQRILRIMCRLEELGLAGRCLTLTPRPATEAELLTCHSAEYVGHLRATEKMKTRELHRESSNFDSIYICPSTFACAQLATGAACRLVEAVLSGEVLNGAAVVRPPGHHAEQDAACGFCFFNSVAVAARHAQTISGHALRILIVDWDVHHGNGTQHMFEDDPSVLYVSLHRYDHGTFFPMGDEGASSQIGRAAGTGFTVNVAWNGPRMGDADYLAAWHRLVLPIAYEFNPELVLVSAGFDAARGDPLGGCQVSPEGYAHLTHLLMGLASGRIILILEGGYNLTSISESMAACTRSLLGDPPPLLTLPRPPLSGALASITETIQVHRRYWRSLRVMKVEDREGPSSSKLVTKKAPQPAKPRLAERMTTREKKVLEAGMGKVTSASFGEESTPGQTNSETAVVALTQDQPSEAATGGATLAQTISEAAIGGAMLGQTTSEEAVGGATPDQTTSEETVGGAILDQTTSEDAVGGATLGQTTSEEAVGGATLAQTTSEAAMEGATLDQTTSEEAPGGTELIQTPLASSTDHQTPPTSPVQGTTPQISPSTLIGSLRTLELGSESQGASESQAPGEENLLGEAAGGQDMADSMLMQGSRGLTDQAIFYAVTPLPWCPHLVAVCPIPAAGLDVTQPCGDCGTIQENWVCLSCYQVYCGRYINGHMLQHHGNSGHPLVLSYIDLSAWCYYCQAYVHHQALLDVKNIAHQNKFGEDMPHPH

Recombinant human HDAC1 = biological target: T2, Recombinant human HDAC1 (Homo sapiens, UniProt Q13547); test: Human HDAC enzyme inhibitor Fluor-de-Lys assay, HDAC1
T2 construct: FLAG (C); made in house
T2 sequence (Q13547 whole entry): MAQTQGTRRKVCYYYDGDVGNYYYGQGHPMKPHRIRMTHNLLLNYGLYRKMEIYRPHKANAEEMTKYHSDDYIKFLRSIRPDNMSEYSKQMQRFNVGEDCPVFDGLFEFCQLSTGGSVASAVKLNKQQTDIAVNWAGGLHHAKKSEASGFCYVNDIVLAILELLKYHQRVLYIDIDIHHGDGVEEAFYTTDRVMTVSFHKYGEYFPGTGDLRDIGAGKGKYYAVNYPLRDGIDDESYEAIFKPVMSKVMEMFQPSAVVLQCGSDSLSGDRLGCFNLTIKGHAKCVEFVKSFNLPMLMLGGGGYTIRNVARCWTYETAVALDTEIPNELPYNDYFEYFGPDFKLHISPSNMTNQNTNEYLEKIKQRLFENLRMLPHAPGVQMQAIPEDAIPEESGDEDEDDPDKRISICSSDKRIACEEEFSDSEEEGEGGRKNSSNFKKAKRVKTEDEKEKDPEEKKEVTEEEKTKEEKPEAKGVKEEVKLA
Procedure: Human HDAC Enzyme Inhibitor Fluor-De-Lys Assay
Recombinant human HDAC8 (BML-SE145-0100) and HDAC10 (BML-SE559-0050) enzymes, HDAC substrates BML-KI104 and BML-KI178, and HDAC developer solutions BML-KI105 and BML-KI176 were purchased from Enzo Life Sciences. […] HDAC inhibitor suberoylanilide hydroxamic acid (SAHA) was obtained from Indofine and trichostatin A (TSA) was obtained from Sigma-Aldrich.
Recombinant human HDAC1, HDAC2, and HDAC3/SMRT heterodimer were prepared by Merck Research Laboratories. […] The eluted protein was then passed over an anti-HDAC1 immunoaffinity column to remove any complexes containing HDAC1. […]
The histone deacetylase activities of HDAC1, HDAC2, HDAC3, HDAC6, and HDAC8 were measured in modified FLUOR DE LYS assays in 384-well format. In this assay, HDAC enzymes are initially incubated with an ε-acetyl (or -trifluoroacetyl)-L-lysine-containing substrate with a C-terminal amide having aminomethylcoumarin as the amine component. HDACs cleave the ε-acetyl group, rendering the resulting product susceptible to AMC cleavage by trypsin. The released AMC is then detected by its fluorescence.
The HDAC3/SMRT assay employed buffer B, consisting of 20 mM HEPES, pH 8.0, 1 mM MgCl2, 50 mM NaCl, 2.7 mM KCl, 0.05% BSA, 0.005% Tween 20, and 10 μM IP4. […] The HDAC8 assay employed buffer D, consisting of 20 mM HEPES, pH 8.0, 1 mM MgCl2, 100 mM NaCl, 20 mM KCl, 0.10% n-octyl-β-D-glucoside (Anatrace) and 0.05% BSA. All steps were performed at room temperature (23° C.). The assay was performed by pre-incubating serial dilutions of test compounds with the target HDAC prior to initiation with substrate. Each compound was titrated in a 10-point dose response, using a 1:3 fold dilution scheme, with 0.15 ul of solution added by ECH0555 to the plate, followed by the addition of 20 μl of the appropriate HDAC isoform diluted in appropriate assay buffer. […] Final conditions used for each assay were: 1. HDAC 1, 0.3 nM total enzyme, 20 μM substrate BML-KI104; 2. […] HDAC 3/SMRT, 0.3 nM total enzyme, 20 μM substrate BML-KI104; 4. […] The reactions were stopped and developed by addition of 30 ul of HDAC developer solution containing a saturating level of HDAC inhibitor as follows: 1.

[1] = biological target: T3, Recombinant human HDAC3/SMRT heterodimer (Homo sapiens, UniProt O15379); test: Human HDAC enzyme inhibitor Fluor-de-Lys assay, HDAC3/SMRT
T3 construct: FLAG (C); made in house
T3 sequence (O15379 whole entry): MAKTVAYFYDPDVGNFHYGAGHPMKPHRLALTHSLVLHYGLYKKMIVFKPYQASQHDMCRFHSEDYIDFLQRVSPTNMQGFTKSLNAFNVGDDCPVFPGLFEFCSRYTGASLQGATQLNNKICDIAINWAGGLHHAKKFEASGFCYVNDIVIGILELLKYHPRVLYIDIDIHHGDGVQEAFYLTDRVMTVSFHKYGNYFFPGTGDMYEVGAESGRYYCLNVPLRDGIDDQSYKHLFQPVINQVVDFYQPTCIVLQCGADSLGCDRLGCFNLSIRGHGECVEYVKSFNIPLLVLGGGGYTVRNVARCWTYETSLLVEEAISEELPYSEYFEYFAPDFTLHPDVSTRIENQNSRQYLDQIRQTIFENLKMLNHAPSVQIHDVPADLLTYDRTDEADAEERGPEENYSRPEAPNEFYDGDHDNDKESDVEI
T3 sequence (Q9Y618 1-899 partner limits assumed): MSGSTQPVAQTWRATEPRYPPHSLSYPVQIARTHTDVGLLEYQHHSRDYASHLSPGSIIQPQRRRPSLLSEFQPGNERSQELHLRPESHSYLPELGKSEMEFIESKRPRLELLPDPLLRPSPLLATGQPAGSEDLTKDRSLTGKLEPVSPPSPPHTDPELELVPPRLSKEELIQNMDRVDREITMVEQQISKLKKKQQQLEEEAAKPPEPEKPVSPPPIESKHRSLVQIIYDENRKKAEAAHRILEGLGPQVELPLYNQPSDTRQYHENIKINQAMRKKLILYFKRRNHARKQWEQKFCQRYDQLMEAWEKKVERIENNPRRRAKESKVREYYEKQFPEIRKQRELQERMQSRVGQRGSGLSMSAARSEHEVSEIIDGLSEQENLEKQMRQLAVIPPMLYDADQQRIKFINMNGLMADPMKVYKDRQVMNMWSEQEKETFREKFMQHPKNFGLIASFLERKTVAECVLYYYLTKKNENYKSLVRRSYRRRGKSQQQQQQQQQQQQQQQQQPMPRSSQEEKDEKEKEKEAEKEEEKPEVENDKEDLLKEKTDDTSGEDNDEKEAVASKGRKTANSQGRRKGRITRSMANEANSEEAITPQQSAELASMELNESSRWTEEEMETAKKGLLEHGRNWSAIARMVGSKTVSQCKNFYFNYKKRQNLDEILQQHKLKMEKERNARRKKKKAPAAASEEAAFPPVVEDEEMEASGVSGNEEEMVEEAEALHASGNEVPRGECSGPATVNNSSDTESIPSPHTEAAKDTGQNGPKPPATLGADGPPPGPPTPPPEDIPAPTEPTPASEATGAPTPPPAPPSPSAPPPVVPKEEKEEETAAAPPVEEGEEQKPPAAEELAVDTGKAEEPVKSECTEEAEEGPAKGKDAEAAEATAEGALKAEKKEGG

Recombinant human HDAC8 = biological target: T4, Recombinant human HDAC8 (Homo sapiens, UniProt Q9BY41); test: Human HDAC enzyme inhibitor Fluor-de-Lys assay, HDAC8
T4 construct: purchased Enzo Life Sciences BML-SE145-0100
T4 sequence (Q9BY41 1-377): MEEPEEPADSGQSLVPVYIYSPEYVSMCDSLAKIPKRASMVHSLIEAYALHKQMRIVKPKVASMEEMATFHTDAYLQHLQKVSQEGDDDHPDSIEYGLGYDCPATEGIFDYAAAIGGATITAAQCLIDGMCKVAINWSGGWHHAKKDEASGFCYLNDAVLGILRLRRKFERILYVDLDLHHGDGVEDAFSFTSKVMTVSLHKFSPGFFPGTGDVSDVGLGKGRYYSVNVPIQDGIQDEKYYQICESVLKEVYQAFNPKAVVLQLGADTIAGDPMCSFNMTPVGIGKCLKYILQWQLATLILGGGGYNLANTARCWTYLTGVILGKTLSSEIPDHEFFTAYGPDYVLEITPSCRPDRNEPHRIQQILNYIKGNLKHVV

SMILES | IC50 (HDAC6) [µM] | IC50 (Recombinant human HDAC1) [µM] | IC50 [1] [µM] | IC50 (Recombinant human HDAC8) [µM]
CCC(=O)CCCCC[C@H](NC(=O)[C@H]1CC[C@]2(CC1)OC(=O)c1cccnc12)c1ncc(-c2ccc3nc(C4CC4)ccc3c2)o1 [Compound 123] | > 15 | 0.0348 | 0.00759 | > 15
CCC(=O)CCCCC[C@H](NC(=O)[C@H]1CC12CCN(CC)CC2)c1ncc(-c2ccc3c(=O)n(C(C)C)ccc3c2)[nH]1 [Compound 126] | 18.1 | 0.00019 | 0.00019 | 6.48
CCC(=O)CCCCC[C@H](NC(=O)[C@H]1CC12CCN(CC)CC2)c1ncc(-c2ccc(-c3cnc(C4CC4)cn3)cc2)o1 [Compound 129, (1S)—N-[(1S)-1-{5-[4-(5-cyclopropylpyrazin-2-yl)phenyl]-1,3-oxazol-2-yl}-7-oxononyl]-6-ethyl-6-azaspiro[2.5]octane-1-carboxamide] | > 15 | 0.027 | 0.0142 | 7.72
CC(O)C(=O)CCCCC[C@H](NC(=O)[C@H]1CC12CCN(C)CC2)c1nc(-c2ccc(F)cc2)c[nH]1 (stereo partly drawn) [Compound 134, (1S)—N-{(1S)-1-[4-(4-fluorophenyl)-1H-imidazol-2-yl]-8-hydroxy-7-oxononyl}-6-methyl-6-azaspiro[2.5]octane-1-carboxamide] | 1.76 | 0.0105 | 0.004 | 0.574
CCC(=O)CCCCC[C@H](NC(=O)C1=NOC2(CCN(C)CC2)C1)c1ncc(-c2ccc3nc(C4CC4)ccc3c2)o1 [Compound 135] | > 15 | 0.0146 | 0.011 | 18.3
CCC(=O)CCCCC[C@H](NC(=O)C1=NOC2(CCN(C(C)C)CC2)C1)c1ncc(-c2ccc3nc(C4CC4)ccc3c2)o1 [Compound 136] | > 4.5 | 0.0103 | 0.00641 | 4.8
CCC(=O)CCCCC[C@H](NC(=O)[C@H]1CC12CCN(C)CC2)c1ncc(-c2ccc3c(=O)n(C)ccc3c2)o1 [Compound 137] | 2.76 | 0.00778 | 0.00472 | 33.5
CCC(=O)CCCCC[C@H](NC(=O)[C@H]1CC12CCN(C)CC2)c1ncc(-c2ccc3oc(=O)ccc3c2)[nH]1 [Compound 138] | 1.47 | 0.00132 | 0.00162 | 10.1
CCC(=O)CCCCC[C@H](NC(=O)[C@H]1CC12CCN(C)CC2)c1ncc(-c2ccc(C3CC3)nc2)[nH]1 [Compound 139] | 4.45 | 0.00528 | 0.00239 | 12
CCC(=O)CCCCC[C@H](NC(=O)[C@H]1CC12CCN(C)CC2)c1ncc(-c2ccc3ncc(Cl)cc3c2)[nH]1 [Compound 140] | 0.611 | 0.00097 | 0.00095 | 4.11
CCC(=O)CCCCC[C@H](NC(=O)[C@H]1CC[C@]2(CC1)OC(=O)c1ncccc12)c1ncc(-c2cc3ccccc3nc2OC)[nH]1 [Compound 141] | 1.49 | 0.0122 | 0.00198 | 2.11
